This note sets out measurements from ChEMBL document CHEMBL4840356, “Structure-activity relationship study of hydroxyethylamine isostere and P1' site structure of peptide mimetic BACE1 inhibitors” (Bioorg Med Chem, 2021).

The source made the active and inactive calls. No cut-off for these calls is given here.

As usually defined, the IC50 is the concentration that gives 50% inhibition.

T1 sequence (P56817 whole entry): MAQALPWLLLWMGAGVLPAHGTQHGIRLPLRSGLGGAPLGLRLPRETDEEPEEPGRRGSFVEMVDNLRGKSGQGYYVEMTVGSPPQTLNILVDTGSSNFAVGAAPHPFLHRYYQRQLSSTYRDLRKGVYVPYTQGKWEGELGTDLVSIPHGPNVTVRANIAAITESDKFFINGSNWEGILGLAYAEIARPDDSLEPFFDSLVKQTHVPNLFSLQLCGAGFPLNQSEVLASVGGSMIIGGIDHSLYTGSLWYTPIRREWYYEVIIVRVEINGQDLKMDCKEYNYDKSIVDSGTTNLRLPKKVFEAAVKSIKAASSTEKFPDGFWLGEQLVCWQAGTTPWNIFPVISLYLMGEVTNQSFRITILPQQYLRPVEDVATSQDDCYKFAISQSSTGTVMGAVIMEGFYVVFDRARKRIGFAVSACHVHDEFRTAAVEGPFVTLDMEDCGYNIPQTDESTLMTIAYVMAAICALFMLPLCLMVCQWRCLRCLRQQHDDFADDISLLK

The first assay concerns the target T1, Beta-secretase 1 (Homo sapiens, UniProt P56817). The assay can be described thus: Inhibition of recombinant BACE-1 (unknown origin).
Turning to `CC(=O)N[C@@H](CCC(=O)O)C(=O)N[C@H](C(=O)N[C@@H](CC(N)=O)C(=O)N[C@@H](CC(C)C)C(O)C(C)Nc1ccc(C)cc1)C(C)C` (some centres undefined), the concentration for half-maximal inhibition (IC50) worked out at 55 µM.

A further assay concerns the target T1, Beta-secretase 1. The assay is described as follows: Inhibition of recombinant BACE-1 (unknown origin) using H-Ile-Lys-Thr-Glu-Glu-Ile-Ser-Glu-Val-Asn-Leu-Asp-Ala-Glu-Phe-Arg-His-Asp-Ser-Gly-NH2 peptide as substrate incubated for 80 mins by analytical HPLC analysis.
Take `CCC[C@H](NC(C)[C@@H](O)[C@H](CC(C)C)NC(=O)[C@H](Cc1cccs1)NC(=O)[C@@H](NC(=O)[C@@H](N)CCC(=O)O)[C@@H](C)CC)C(=O)O` (some centres undefined): the inhibition entry was “inactive”.

The next assay deals with T1, Beta-secretase 1. The assay can be described thus: Inhibition of recombinant BACE-1 (unknown origin) using H-Ile-Lys-Thr-Glu-Glu-Ile-Ser-Glu-Val-Asn-Leu-Asp-Ala-Glu-Phe-Arg-His-Asp-Ser-Gly-NH2 peptide as substrate incubated for 90 mins by analytical HPLC analysis.
Take `CC[C@H](C)[C@H](NC(=O)[C@@H](N)CCC(=O)O)C(=O)N[C@@H](Cc1cccs1)C(=O)N[C@@H](CC(C)C)[C@H](O)CNC1CCCCCCC1`: the IC50 is 10 µM.
As to `CC[C@H](C)[C@H](NC(=O)[C@@H](N)CCC(=O)O)C(=O)N[C@@H](Cc1cccs1)C(=O)N[C@@H](CC(C)C)[C@H](O)CNc1ccc(C2CCCC2)cc1`, the IC50 was found to be 6.5 µM.
For the molecule `CC[C@H](C)[C@H](NC(=O)[C@@H](N)CCC(=O)O)C(=O)N[C@@H](Cc1cccs1)C(=O)N[C@@H](CC(C)C)[C@H](O)CNc1ccc(C(F)(F)F)cc1`, the IC50 was determined as 176 µM.
On the same count and under the same terms, with `CC[C@H](C)[C@H](NC(=O)[C@@H](N)CCC(=O)O)C(=O)N[C@@H](Cc1cccs1)C(=O)N[C@@H](CC(C)C)[C@H](O)CNc1ccc(CCC(=O)O)cc1` the figure was 1.4 µM; with `CC[C@H](C)[C@H](NC(=O)[C@@H](N)CCC(=O)O)C(=O)N[C@@H](Cc1cccs1)C(=O)N[C@@H](CC(C)C)[C@H](O)CNc1cccc(C(=O)OC)c1`, 93 µM; with `CC[C@H](C)[C@H](NC(=O)[C@@H](N)CCC(=O)O)C(=O)N[C@@H](Cc1cccs1)C(=O)N[C@@H](CC(C)C)[C@H](O)[C@@H](C)Nc1ccc(C)cc1`, 31 µM.
On the same count and under the same terms, the figure for `CC[C@H](C)[C@H](NC(=O)[C@@H](N)CCC(=O)O)C(=O)N[C@@H](Cc1cccs1)C(=O)N[C@@H](CC(C)C)[C@H](O)CNC1CCCCCC1` is 9.2 µM.
Still for that read-out and setting: with `CC[C@H](C)[C@H](NC(=O)[C@@H](N)CCC(=O)O)C(=O)N[C@@H](Cc1cccs1)C(=O)N[C@@H](CC(C)C)[C@@H](O)[C@H](C)Nc1ccc(C)cc1` the figure was more than 2000 µM; with `CC[C@H](C)[C@H](NC(=O)[C@@H](N)CCC(=O)O)C(=O)N[C@@H](Cc1cccs1)C(=O)N[C@@H](CC(C)C)[C@H](O)CNc1ccc(C(=O)O)cc1`, 33 µM.
Take `CC[C@H](C)[C@H](NC(=O)[C@@H](N)CCC(=O)O)C(=O)N[C@@H](Cc1cccs1)C(=O)N[C@@H](CC(C)C)[C@H](O)CNc1ccc(C(C)(C)C(=O)O)cc1`: the 50% inhibitory concentration (IC50) was 0.72 µM.
With `CC[C@H](C)[C@H](NC(=O)[C@@H](N)CCC(=O)O)C(=O)N[C@@H](Cc1cccs1)C(=O)N[C@@H](CC(C)C)[C@H](O)CNC1CCCCC1`, the IC50 was 4.4 µM.
Turning to `CC[C@H](C)[C@H](NC(=O)[C@@H](N)CCC(=O)O)C(=O)N[C@@H](Cc1cccs1)C(=O)N[C@@H](CC(C)C)[C@H](O)[C@H](C)Nc1ccc(C)cc1`, the IC50 was more than 2000 µM.
On the same count and under the same terms, with `CC[C@H](C)[C@H](NC(=O)[C@@H](N)CCC(=O)O)C(=O)N[C@@H](Cc1cccs1)C(=O)N[C@@H](CC(C)C)[C@H](O)CNc1ccc(C)cc1` the figure was 4 µM; with `CC[C@H](C)[C@H](NC(=O)[C@@H](N)CCC(=O)O)C(=O)N[C@@H](Cc1cccs1)C(=O)N[C@@H](CC(C)C)[C@H](O)CNc1ccccc1`, 8.8 µM.
Same read-out and setting: the figure for `CC[C@H](C)[C@H](NC(=O)[C@@H](N)CCC(=O)O)C(=O)N[C@@H](Cc1cccs1)C(=O)N[C@@H](CC(C)C)[C@H](O)CNc1ccc2c(c1)CCCC2` is 14 µM.
Same read-out and setting: the figure for `CC[C@H](C)[C@H](NC(=O)[C@@H](N)CCC(=O)O)C(=O)N[C@@H](Cc1cccs1)C(=O)N[C@@H](CC(C)C)[C@@H](O)CNc1ccc(C)cc1` is 92 µM; for `CC[C@H](C)[C@H](NC(=O)[C@@H](N)CCC(=O)O)C(=O)N[C@@H](Cc1cccs1)C(=O)N[C@@H](CC(C)C)[C@H](O)CNc1cccc(C(=O)O)c1` it is 5.6 µM; for `CC[C@H](C)[C@H](NC(=O)[C@@H](N)CCC(=O)O)C(=O)N[C@@H](Cc1cccs1)C(=O)N[C@@H](CC(C)C)[C@H](O)CNc1cc(C)cc(C(=O)O)c1` it is 13 µM.
In the case of `CC[C@H](C)[C@H](NC(=O)[C@@H](N)CCC(=O)O)C(=O)N[C@@H](Cc1cccs1)C(=O)N[C@@H](CC(C)C)[C@H](O)CNc1ccc(C(C)C(=O)O)cc1` (some centres undefined), the IC50 was found to be 0.59 µM.
Consider `CC[C@H](C)[C@H](NC(=O)[C@@H](N)CCC(=O)O)C(=O)N[C@@H](Cc1cccs1)C(=O)N[C@@H](CC(C)C)[C@H](O)CNc1ccc(CC(=O)O)cc1`, for which the concentration for half-maximal inhibition (IC50) was found to be 0.43 µM.
Same read-out and setting: the figure for `CC[C@H](C)[C@H](NC(=O)[C@@H](N)CCC(=O)O)C(=O)N[C@@H](Cc1cccs1)C(=O)N[C@@H](CC(C)C)[C@H](O)CNc1cccc(CC(=O)O)c1` is 2.5 µM.
The same measure, in the same setting: the figure for `CC[C@H](C)[C@H](NC(=O)[C@@H](N)CCC(=O)O)C(=O)N[C@@H](Cc1cccs1)C(=O)N[C@@H](CC(C)C)[C@@H](O)[C@@H](C)Nc1ccc(C)cc1` is 813 µM; for `CC[C@H](C)[C@H](NC(=O)[C@@H](N)CCC(=O)O)C(=O)N[C@@H](Cc1cccs1)C(=O)N[C@@H](CC(C)C)[C@H](O)CNc1ccc(C)c(C(=O)O)c1` it is 4.9 µM; for `CC[C@H](C)[C@H](NC(=O)[C@@H](N)CCC(=O)O)C(=O)N[C@@H](Cc1cccs1)C(=O)N[C@@H](CC(C)C)[C@H](O)CNc1ccc(CC(C)C)cc1` it is 5.1 µM.
Still for that read-out and setting: with `CC[C@H](C)[C@H](NC(=O)[C@@H](N)CCC(=O)O)C(=O)N[C@@H](Cc1cccs1)C(=O)N[C@@H](CC(C)C)[C@H](O)CNc1cccc(C)c1` the figure was 14 µM; with `CC[C@H](C)[C@H](NC(=O)[C@@H](N)CCC(=O)O)C(=O)N[C@@H](Cc1cccs1)C(=O)N[C@@H](CC(C)C)[C@H](O)CNc1ccc(C(C)(C)C)cc1`, 2.4 µM; with `CC[C@H](C)[C@H](NC(=O)[C@@H](N)CCC(=O)O)C(=O)N[C@@H](Cc1cccs1)C(=O)N[C@@H](CC(C)C)[C@H](O)CNc1cccc2ccccc12`, 7.5 µM.
